{"source": "ChEMBL document CHEMBL4390652", "about": "“Design, biological evaluation and X-ray crystallography of nanomolar multifunctional ligands targeting simultaneously acetylcholinesterase and glycogen synthase kinase-3” (Eur J Med Chem, 2019)", "key": {"[1]": {"biological_target": "Atypical kinase COQ8A, mitochondrial (Homo sapiens) (UniProt Q8NI60)", "sequence (Q8NI60 163-647 limits assumed)": "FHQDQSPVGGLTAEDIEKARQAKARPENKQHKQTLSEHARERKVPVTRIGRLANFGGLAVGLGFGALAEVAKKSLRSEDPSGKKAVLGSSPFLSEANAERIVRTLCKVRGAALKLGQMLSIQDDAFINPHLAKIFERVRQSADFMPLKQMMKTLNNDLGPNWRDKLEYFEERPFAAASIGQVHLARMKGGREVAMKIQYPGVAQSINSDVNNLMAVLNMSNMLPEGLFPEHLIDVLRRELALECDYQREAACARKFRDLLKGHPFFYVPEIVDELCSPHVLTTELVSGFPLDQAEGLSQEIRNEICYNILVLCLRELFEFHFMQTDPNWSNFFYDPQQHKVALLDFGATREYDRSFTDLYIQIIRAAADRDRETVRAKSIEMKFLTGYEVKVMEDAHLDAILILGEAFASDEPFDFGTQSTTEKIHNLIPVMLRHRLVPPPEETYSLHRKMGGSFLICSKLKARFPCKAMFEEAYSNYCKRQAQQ", "assay": "Binding affinity to wild-type human full length ADCK3 (M280 to Q647 residues) expressed in bacterial expression system assessed as residual binding level at 10 uM by Kinomescan method relative to control"}, "[2]": {"biological_target": "Aurora kinase B (Homo sapiens) (UniProt Q96GD4)", "sequence (Q96GD4 whole entry, the tested form may be a part)": "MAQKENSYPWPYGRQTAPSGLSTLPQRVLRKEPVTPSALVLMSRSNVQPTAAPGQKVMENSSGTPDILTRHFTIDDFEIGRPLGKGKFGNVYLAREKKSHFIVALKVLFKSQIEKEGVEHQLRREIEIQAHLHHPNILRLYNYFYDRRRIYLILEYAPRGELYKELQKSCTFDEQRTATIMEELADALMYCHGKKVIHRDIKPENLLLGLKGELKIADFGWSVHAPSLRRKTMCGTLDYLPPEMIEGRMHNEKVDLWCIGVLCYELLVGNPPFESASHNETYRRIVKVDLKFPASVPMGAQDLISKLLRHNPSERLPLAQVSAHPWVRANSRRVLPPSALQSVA", "assay": "Binding affinity to wild-type human partial length AURKB (D25 to A303 residues) expressed in mammalian expression system assessed as residual binding level at 10 uM by Kinomescan method relative to control"}, "[3]": {"test_system": "Serine/threonine-protein kinase B-raf (Homo sapiens), P15056 [V600E]", "assay": "Binding affinity to human partial length BRAF V600E mutant (S429 to E741 residues) expressed in mammalian expression system assessed as residual binding level at 10 uM by Kinomescan method relative to control"}, "[4]": {"biological_target": "CDK4/Cyclin D3 (Homo sapiens) (UniProt P11802+P30281)", "assay": "Binding affinity to wild-type human full length CDK4/cyclinD3 (M1 to E303 residues) expressed in mammalian expression system assessed as residual binding level at 10 uM by Kinomescan method relative to control"}, "[5]": {"biological_target": "Mitogen-activated protein kinase 6 (Homo sapiens) (UniProt Q16659)", "assay": "Binding affinity to wild-type human partial length ERK3 (M1 to P413 residues) expressed in bacterial expression system assessed as residual binding level at 10 uM by Kinomescan method relative to control"}, "[6]": {"biological_target": "Fibroblast growth factor receptor 2 (Homo sapiens) (UniProt P21802)", "assay": "Binding affinity to wild-type human partial length FGFR2 (D457 to E769 residues) expressed in bacterial expression system assessed as residual binding level at 10 uM by Kinomescan method relative to control"}, "[7]": {"biological_target": "Tyrosine-protein kinase Fgr (Homo sapiens) (UniProt P09769)", "sequence (P09769 2-529 limits assumed)": "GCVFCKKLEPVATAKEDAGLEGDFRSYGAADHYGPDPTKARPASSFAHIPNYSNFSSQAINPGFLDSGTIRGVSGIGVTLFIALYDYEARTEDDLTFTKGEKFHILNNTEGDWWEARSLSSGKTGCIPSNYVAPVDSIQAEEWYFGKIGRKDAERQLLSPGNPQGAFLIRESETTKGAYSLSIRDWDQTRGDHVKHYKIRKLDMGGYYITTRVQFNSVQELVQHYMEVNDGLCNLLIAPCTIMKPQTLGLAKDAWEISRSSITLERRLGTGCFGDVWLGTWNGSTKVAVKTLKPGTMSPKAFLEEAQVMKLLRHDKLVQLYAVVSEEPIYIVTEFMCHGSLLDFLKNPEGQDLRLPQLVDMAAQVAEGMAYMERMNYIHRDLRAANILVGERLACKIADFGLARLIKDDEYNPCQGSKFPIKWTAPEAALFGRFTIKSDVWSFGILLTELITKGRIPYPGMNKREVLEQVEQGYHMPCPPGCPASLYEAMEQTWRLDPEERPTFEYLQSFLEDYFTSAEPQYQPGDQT", "assay": "Binding affinity to wild-type human partial length FGR (L233 to T529 residues) expressed in bacterial expression system assessed as residual binding level at 10 uM by Kinomescan method relative to control"}, "[8]": {"biological_target": "Homeodomain-interacting protein kinase 2 (Homo sapiens) (UniProt Q9H2X6)", "assay": "Binding affinity to wild-type human partial length HIPK2 (M153 to S564 residues) expressed in mammalian expression system assessed as residual binding level at 10 uM by Kinomescan method relative to control"}, "[9]": {"biological_target": "Mitogen-activated protein kinase kinase kinase kinase 3 (Homo sapiens) (UniProt Q8IVH8)", "sequence (Q8IVH8 whole entry, the tested form may be a part)": "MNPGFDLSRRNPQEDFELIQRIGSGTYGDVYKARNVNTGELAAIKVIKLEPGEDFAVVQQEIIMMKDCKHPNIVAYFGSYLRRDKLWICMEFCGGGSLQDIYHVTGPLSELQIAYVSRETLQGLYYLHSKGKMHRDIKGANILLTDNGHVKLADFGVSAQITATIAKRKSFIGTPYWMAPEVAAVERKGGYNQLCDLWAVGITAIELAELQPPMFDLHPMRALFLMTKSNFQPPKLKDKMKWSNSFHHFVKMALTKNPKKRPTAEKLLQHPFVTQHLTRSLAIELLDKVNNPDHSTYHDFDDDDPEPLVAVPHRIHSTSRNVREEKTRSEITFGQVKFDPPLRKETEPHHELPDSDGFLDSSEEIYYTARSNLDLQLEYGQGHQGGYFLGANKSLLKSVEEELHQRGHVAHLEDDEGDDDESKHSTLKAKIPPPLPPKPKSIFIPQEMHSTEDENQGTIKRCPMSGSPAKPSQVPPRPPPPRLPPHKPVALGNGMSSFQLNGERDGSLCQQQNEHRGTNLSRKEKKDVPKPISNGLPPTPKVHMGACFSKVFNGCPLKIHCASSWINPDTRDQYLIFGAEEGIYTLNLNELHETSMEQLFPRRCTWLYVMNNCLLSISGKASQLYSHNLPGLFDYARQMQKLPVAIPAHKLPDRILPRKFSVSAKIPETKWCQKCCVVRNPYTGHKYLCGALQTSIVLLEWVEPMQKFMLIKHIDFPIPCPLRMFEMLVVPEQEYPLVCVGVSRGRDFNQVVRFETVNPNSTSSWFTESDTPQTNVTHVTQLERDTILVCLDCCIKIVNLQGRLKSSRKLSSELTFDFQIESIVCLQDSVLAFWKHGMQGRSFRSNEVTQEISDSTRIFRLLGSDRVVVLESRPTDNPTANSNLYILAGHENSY", "assay": "Binding affinity to wild-type human partial length MAP4K3 (M1 to D301 residues) expressed in bacterial expression system assessed as residual binding level at 10 uM by Kinomescan method relative to control"}, "[10]": {"biological_target": "Microtubule-associated serine/threonine-protein kinase 1 (Homo sapiens) (UniProt Q9Y2H9)", "assay": "Binding affinity to wild-type human partial length MAST1 (S346 to V730 residues) expressed in mammalian expression system assessed as residual binding level at 10 uM by Kinomescan method relative to control"}, "[11]": {"biological_target": "Dual specificity mitogen-activated protein kinase kinase 5 (Homo sapiens) (UniProt Q13163)", "assay": "Binding affinity to wild-type human partial length MEK5 (L98 to P448 residues) expressed in mammalian expression system assessed as residual binding level at 10 uM by Kinomescan method relative to control"}, "[12]": {"biological_target": "Dual specificity mitogen-activated protein kinase kinase 6 (Homo sapiens) (UniProt P52564)", "assay": "Binding affinity to wild-type human partial length MEK6 (K36 to D334 residues) expressed in bacterial expression system assessed as residual binding level at 10 uM by Kinomescan method relative to control"}, "[13]": {"biological_target": "Macrophage-stimulating protein receptor (Homo sapiens) (UniProt Q04912)", "sequence (Q04912 25-304 limits assumed)": "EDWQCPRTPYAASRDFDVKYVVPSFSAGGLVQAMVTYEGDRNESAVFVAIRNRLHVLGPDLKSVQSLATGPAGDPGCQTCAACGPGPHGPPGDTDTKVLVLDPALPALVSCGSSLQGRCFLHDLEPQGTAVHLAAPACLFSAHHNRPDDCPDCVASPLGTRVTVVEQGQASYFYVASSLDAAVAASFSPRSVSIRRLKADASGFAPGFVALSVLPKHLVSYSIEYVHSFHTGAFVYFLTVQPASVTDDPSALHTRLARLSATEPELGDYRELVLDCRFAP", "sequence (Q04912 310-1400 limits assumed)": "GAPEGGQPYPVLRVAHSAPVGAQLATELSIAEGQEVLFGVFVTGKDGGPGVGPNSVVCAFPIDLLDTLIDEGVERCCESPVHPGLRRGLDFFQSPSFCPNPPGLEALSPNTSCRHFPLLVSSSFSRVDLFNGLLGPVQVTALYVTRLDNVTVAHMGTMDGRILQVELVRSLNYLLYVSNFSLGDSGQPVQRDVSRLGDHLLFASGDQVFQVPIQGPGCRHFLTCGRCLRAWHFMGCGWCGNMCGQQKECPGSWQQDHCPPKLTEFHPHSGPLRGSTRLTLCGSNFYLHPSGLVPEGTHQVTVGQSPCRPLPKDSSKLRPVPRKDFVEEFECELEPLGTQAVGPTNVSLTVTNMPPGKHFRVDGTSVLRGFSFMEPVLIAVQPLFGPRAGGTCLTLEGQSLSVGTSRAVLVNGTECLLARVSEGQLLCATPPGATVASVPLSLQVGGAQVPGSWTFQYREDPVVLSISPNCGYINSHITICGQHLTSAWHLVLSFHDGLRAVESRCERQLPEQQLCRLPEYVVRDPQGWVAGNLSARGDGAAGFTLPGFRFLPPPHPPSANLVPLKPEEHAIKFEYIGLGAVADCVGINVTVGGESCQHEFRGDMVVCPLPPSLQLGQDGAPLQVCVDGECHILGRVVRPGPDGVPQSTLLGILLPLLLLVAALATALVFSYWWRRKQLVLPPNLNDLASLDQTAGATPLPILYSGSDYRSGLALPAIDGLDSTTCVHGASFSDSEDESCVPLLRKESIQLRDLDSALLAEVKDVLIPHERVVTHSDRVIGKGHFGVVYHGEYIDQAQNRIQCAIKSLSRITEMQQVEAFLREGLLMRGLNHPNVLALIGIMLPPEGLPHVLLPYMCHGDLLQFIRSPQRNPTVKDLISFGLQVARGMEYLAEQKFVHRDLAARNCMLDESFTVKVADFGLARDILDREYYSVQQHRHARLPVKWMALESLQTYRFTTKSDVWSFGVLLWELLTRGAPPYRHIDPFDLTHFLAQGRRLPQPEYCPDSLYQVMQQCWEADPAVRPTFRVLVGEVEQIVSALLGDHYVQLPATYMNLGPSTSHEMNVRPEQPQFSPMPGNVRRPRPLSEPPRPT", "assay": "Binding affinity to wild-type human partial length MST1R (I1057 to L1363 residues) expressed in bacterial expression system assessed as residual binding level at 10 uM by Kinomescan method relative to control"}, "[14]": {"biological_target": "Serine/threonine-protein kinase Nek11 (Homo sapiens) (UniProt Q8NG66)", "assay": "Binding affinity to wild-type human partial length NEK11 (M1 to E313 residues) expressed in mammalian expression system assessed as residual binding level at 10 uM by Kinomescan method relative to control"}, "[15]": {"biological_target": "Serine/threonine-protein kinase Nek2 (Homo sapiens) (UniProt P51955)", "assay": "Binding affinity to wild-type human partial length NEK2 (M1 to K309 residues) expressed in bacterial expression system assessed as residual binding level at 10 uM by Kinomescan method relative to control"}, "[16]": {"biological_target": "Serine/threonine-protein kinase NLK (Homo sapiens) (UniProt Q9UBE8)", "sequence (Q9UBE8 whole entry, the tested form may be a part)": "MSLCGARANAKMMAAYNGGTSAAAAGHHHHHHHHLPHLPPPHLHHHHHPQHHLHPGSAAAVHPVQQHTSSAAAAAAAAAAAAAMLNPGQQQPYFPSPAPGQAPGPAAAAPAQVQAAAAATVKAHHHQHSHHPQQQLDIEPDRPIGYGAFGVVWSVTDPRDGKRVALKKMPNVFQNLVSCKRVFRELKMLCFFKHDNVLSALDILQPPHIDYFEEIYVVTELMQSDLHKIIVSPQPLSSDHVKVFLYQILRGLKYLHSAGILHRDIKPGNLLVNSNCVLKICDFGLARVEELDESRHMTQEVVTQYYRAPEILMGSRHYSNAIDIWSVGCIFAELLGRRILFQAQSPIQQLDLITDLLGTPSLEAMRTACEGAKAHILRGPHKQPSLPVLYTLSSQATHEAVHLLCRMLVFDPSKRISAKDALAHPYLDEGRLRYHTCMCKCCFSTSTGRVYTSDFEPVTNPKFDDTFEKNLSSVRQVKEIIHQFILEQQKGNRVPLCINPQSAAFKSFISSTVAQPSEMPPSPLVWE", "assay": "Binding affinity to wild-type human full length NLK (M13 to E527 residues) expressed in bacterial expression system assessed as residual binding level at 10 uM by Kinomescan method relative to control"}, "[17]": {"biological_target": "Mitogen-activated protein kinase 14 (Homo sapiens) (UniProt Q16539)", "assay": "Binding affinity to wild-type human full length p38-alpha (M1 to S360 residues) expressed in bacterial expression system assessed as residual binding level at 10 uM by Kinomescan method relative to control"}, "[18]": {"test_system": "Phosphatidylinositol 4,5-bisphosphate 3-kinase catalytic subunit alpha isoform (Homo sapiens), P42336 [I800L]", "assay": "Binding affinity to human partial length PIK3CA I800L mutant (R108 to N1068 residues) expressed in mammalian expression system assessed as residual binding level at 10 uM by Kinomescan method relative to control"}, "[19]": {"biological_target": "Phosphatidylinositol 4,5-bisphosphate 3-kinase catalytic subunit gamma isoform (Homo sapiens) (UniProt P48736)", "assay": "Binding affinity to wild-type human partial length PIK3CG (S144 to A1102 residues) expressed in mammalian expression system assessed as residual binding level at 10 uM by Kinomescan method relative to control"}, "[20]": {"biological_target": "SRSF protein kinase 2 (Homo sapiens) (UniProt P78362)", "sequence (P78362 whole entry, looked up, the tested form may be a part)": "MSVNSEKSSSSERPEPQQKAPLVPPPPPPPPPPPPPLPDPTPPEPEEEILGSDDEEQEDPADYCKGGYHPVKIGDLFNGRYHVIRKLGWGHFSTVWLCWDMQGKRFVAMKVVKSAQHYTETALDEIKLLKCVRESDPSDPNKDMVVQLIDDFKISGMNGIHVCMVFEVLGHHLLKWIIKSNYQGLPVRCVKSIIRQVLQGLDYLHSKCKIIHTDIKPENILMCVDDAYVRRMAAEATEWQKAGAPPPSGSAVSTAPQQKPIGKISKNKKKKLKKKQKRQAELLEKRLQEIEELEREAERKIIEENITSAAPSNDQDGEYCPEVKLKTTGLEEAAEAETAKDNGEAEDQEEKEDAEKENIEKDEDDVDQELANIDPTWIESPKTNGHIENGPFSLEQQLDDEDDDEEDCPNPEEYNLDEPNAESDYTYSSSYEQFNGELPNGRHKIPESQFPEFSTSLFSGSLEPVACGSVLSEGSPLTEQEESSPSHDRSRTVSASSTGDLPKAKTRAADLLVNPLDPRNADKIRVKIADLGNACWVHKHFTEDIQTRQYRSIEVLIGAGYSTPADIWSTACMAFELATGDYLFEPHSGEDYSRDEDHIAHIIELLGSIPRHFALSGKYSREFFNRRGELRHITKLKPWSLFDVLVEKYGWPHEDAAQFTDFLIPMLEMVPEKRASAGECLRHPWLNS", "assay": "Binding affinity to wild-type human full length SRPK2 (M1 to S686 residues) expressed in bacterial expression system assessed as residual binding level at 10 uM by Kinomescan method relative to control"}, "[21]": {"biological_target": "Serine/threonine-protein kinase TAO2 (Homo sapiens) (UniProt Q9UL54)", "assay": "Binding affinity to wild-type human partial length TAOK2 (M1 to A320 residues) expressed in mammalian expression system assessed as residual binding level at 10 uM by Kinomescan method relative to control"}, "[22]": {"biological_target": "Non-receptor tyrosine-protein kinase TNK1 (Homo sapiens) (UniProt Q13470)", "assay": "Binding affinity to wild-type human full length TNK1 (M1 to P661 residues) expressed in bacterial expression system assessed as residual binding level at 10 uM by Kinomescan method relative to control"}, "[23]": {"biological_target": "Activated CDC42 kinase 1 (Homo sapiens) (UniProt Q07912)", "assay": "Binding affinity to wild-type human partial length TNK2 (S159 to D474 residues) expressed in bacterial expression system assessed as residual binding level at 10 uM by Kinomescan method relative to control"}, "[24]": {"biological_target": "Serine/threonine-protein kinase WNK1 (Homo sapiens) (UniProt Q9H4A3)", "assay": "Binding affinity to wild-type human partial length WNK1 (Q194 to A490 residues) expressed in mammalian expression system assessed as residual binding level at 10 uM by Kinomescan method relative to control"}}, "data": [{"smiles": "O=C(Nc1cc(-c2cn(CCNc3c4c(nc5ccccc35)CCCC4)nn2)ccn1)Nc1cccc2c1C1CCCCN1C2=O", "note": "(racemic)", "values": [{"measurement": "Activity", "setting": "[1]", "value": 40, "unit": "%"}, {"measurement": "Activity", "setting": "[2]", "value": 5.6, "unit": "%"}, {"measurement": "Activity", "setting": "[3]", "value": 39, "unit": "%"}, {"measurement": "Activity", "setting": "[4]", "value": 1.4, "unit": "%"}, {"measurement": "Activity", "setting": "[5]", "value": 8.7, "unit": "%"}, {"measurement": "Activity", "setting": "[6]", "value": 21, "unit": "%"}, {"measurement": "Activity", "setting": "[7]", "value": 97, "unit": "%"}, {"measurement": "Activity", "setting": "[8]", "value": 49, "unit": "%"}, {"measurement": "Activity", "setting": "[9]", "value": 21, "unit": "%"}, {"measurement": "Activity", "setting": "[10]", "value": 100, "unit": "%"}, {"measurement": "Activity", "setting": "[11]", "value": 1.6, "unit": "%"}, {"measurement": "Activity", "setting": "[12]", "value": 63, "unit": "%"}, {"measurement": "Activity", "setting": "[13]", "value": 89, "unit": "%"}, {"measurement": "Activity", "setting": "[14]", "value": 100, "unit": "%"}, {"measurement": "Activity", "setting": "[15]", "value": 94, "unit": "%"}, {"measurement": "Activity", "setting": "[16]", "value": 70, "unit": "%"}, {"measurement": "Activity", "setting": "[17]", "value": 91, "unit": "%"}, {"measurement": "Activity", "setting": "[18]", "value": 55, "unit": "%"}, {"measurement": "Activity", "setting": "[19]", "value": 100, "unit": "%"}, {"measurement": "Activity", "setting": "[20]", "value": 35, "unit": "%"}, {"measurement": "Activity", "setting": "[21]", "value": 56, "unit": "%"}, {"measurement": "Activity", "setting": "[22]", "value": 48, "unit": "%"}, {"measurement": "Activity", "setting": "[23]", "value": 100, "unit": "%"}, {"measurement": "Activity", "setting": "[24]", "value": 100, "unit": "%"}]}]}
